Earlier results in PMC11949389 (Polish Journal of Microbiology, 2025).
In brackets after ≈: the same amount, converted by molar mass. Where two headings read alike, the source gives them in different places.

Experiments:
Enterococcus sp. = conditions: ref Caballero Gómez et al. 2022
[1] = tested on: Mupirocin-resistant Staphylococcus aureus; conditions: ref Kwiatkowski et al. 2019
[2] = tested on: Methicillin-susceptible Staphylococcus aureus; conditions: ref Owen et al. 2019
TetK efflux pump = conditions: S. aureus, ref Sousa Silveira et al. (2020)
[3] = tested on: amphotericin B-resistant C. albicans; conditions: varying among Candida isolates; ref Touil et al. (2020)
Candida albicans [4] = conditions: ref Shaban et al. 2020
[5] = tested on: Mupirocin-susceptible Staphylococcus aureus; conditions: ref Kwiatkowski et al. 2019
[6] = tested on: C. albicans and co-isolated bacteria; conditions: carvacrol combined with cuminaldehyde; ref Touil et al. (2020)
Staphylococcus sp. = conditions: ref Caballero Gómez et al. 2022
Proteus mirabilis = conditions: ref Sim et al. 2019
Acinetobacter baumannii = conditions: combined with ciprofloxacin, ref Aleksic Sabo et al. (2021)
Candida tropicalis = conditions: Candida tropicalis; ref Iraji et al. 2020; Stringaro et al. 2022
[7] = tested on: carbapenem and polymyxin-resistant Klebsiella pneumoniae; conditions: ref de Souza et al. (2021)
Campylobacter jejuni [8] = conditions: C. jejuni; ref Šimunović et al. (2020)
[9] = tested on: Pseudomonas aeruginosa Enterococcus faecalis; conditions: ref Mechmechani et al. 2022
Escherichia coli = conditions: Escherichia coli; ref Owen et al. 2019; Sayout et al. 2020; Noumi et al. 2023
Campylobacter jejuni [10] = tested on: Campylobacter jejuni
[11] = tested on: bacteria co-isolated with C. albicans; conditions: ref Touil et al. (2020)
[12] = tested on: Vancomycin-sensitive Enterococcus (VSE)
[13] = tested on: carbapenem-resistant E. coli and P. aeruginosa; conditions: ref Owen et al. (2019)
Candida species = conditions: ref Stringaro et al. (2022)
[14] = tested on: Staphylococcus aureus Pseudomonas fluorescens; conditions: ref Wang et al. 2020b
[15] = tested on: Methicillin-resistant Staphylococcus aureus; conditions: Methicillin-resistant Staphylococcus aureus; ref Owen et al. 2019
Klebsiella pneumoniae = conditions: ref Sayout et al. 2020, de Souza et al. 2021, Kwiatkowski et al. 2022
[16] = tested on: Vancomycin-resistant Enterococcus (VRE); conditions: Vancomycin-resistant Enterococcus (VRE); ref Owen et al. 2019
Candida auris [17] = tested on: Candida auris
[18] = tested on: Staphylococcus pseudintermedius
Pseudomonas aeruginosa = conditions: Pseudomonas aeruginosa; ref Owen et al. 2019; Sim et al. 2019; Noumi et al. 2023
Streptococcus suis = conditions: ref de Aguiar et al. 2019
[19] = tested on: Extended-spectrum beta-lactamases Escherichia coli; conditions: ESBL Escherichia coli; ref Khan et al. 2020
Candida albicans [20] = conditions: Candida albicans; ref Sharifzadeh et al. 2019; Iraji et al. 2020; Shaban et al. 2020; Stringaro et al. 2022; Biernasiuk et al. 2022
Candida auris [21] = tested on: Candida auris; remark: listed apart in the source
[22] = tested on: carbapenem and polymyxin-resistant Klebsiella pneumoniae; conditions: murine models, compared to polymyxin B treatment; ref de Souza et al. (2021)
[23] = tested on: Mycobacterium biofilms, including Mycobacterium abscessus and Mycobacterium fortuitum; conditions: even at sub-MIC concentrations; ref Marini et al. (2019)
staphylococcal isolates = conditions: ref Sim et al. 2019
Malassezia pachydermatis = conditions: ref Schlemmer et al. 2019, Sim et al. 2019
[24] = Candida auris, ref Shaban et al. 2020

Which results are given for `Cc1ccc(C(C)C)cc1O` [Carvacrol]?
MIC/Sensitivity (Enterococcus sp.): 100 to 450 µg/mL; MIC/Sensitivity [1]: 480 µg/mL (≈ 3.2 mM); MIC/Sensitivity [2]: 297435.6 µg/mL (≈ 1980 mM); efflux pump inhibition (TetK efflux pump): did not act as efflux pump inhibitors; MIC [3]: 250–1,000 μg/ml; Mechanisms of action (Candida albicans [4]): • Reduced proteinase production; MIC/Sensitivity [5]: 950 µg/mL (≈ 6.32 mM); MIC in combination [6]: 60 to 250 µg/mL; MIC/Sensitivity (Staphylococcus sp.): 200 to 400 µg/mL; MIC/Sensitivity (Proteus mirabilis): 146 to 292 µg/mL; FICI (Acinetobacter baumannii): 0.25–0.32; MIC/Sensitivity (Candida tropicalis): 97.5 µg/mL (≈ 0.649 mM); MIC [7]: 130 to 260 µg/mL; efflux pump inhibition (Campylobacter jejuni [8]): weaker effect; Mechanisms of action [9]: • Cell membrane destruction • Leakage of the intercellular pool • Anti-biofilm properties • Increased extracellular K+ ions concentrations; MIC/Sensitivity (Escherichia coli): 297435.6 µg/mL (≈ 1980 mM); MIC/Sensitivity (Campylobacter jejuni [10]; Campylobacter jejuni, ref Šimunović et al. 2020): 31.25 µg/mL (≈ 0.208 mM); MIC (Campylobacter jejuni [10]; ref Šimunović et al. (2020)): 31.25 µg/mL (≈ 0.208 mM); MIC [11]: 1,000 μg/ml; MIC/Sensitivity ([12]; Vancomycin-sensitive Enterococcus (VSE), ref Owen et al. 2019): 593.37 µg/mL (≈ 3.95 mM); reduction in vancomycin’s MIC ([12]; binary combinations with vancomycin, VSE, ref Owen et al. (2020)): four to eight-fold reduction; activity [13]: ineffective; MIC (Candida species): 97.5 to 195 µg/mL; Mechanisms of action [14]: • Targeted extracellular polymeric substances • Disruption of biofilm structures; MIC/Sensitivity [15]: 148717.8 µg/mL (≈ 990 mM); MIC/Sensitivity (Klebsiella pneumoniae): 130 to 1910 µg/mL; MIC/Sensitivity [16]: 593369 µg/mL (≈ 3950 mM); median MIC (Candida auris [17]; C. auris, ref Shaban et al. (2020)): 125 µg/mL; MIC (Candida auris [17]; [24]): 125 µg/mL (≈ 0.832 mM); MIC/Sensitivity (Candida auris [17]; [24]): 125 µg/mL (≈ 0.832 mM); MIC90 ([18]; S. pseudintermedius, ref Sim et al. (2019)): 146 µg/mL (≈ 0.972 mM); MIC/Sensitivity ([18]; Staphylococcus pseudintermedius, ref Sim et al. 2019): 146 to 292 µg/mL; MIC/Sensitivity (Candida glabrata; Candida glabrata, ref Sharifzadeh et al. 2019, Iraji et al. 2020, Biernasiuk et al. 2022, Stringaro et al. 2022): 62.50 to 195 µg/mL; FICI (Candida glabrata; with voriconazole, C. glabrata, ref Sharifzadeh et al. (2019)): 0.412–0.625; MIC/Sensitivity (Pseudomonas aeruginosa): 585 to 1120 µg/mL; MIC/Sensitivity (Streptococcus suis): 156.25 µg/mL (≈ 1.04 mM); Mechanisms of action [19]: • Disintegration of bacterial cell membranes • Elevation of reactive oxygen species levels • Protected macrophage cells from bacterial invasion • Increased the release of K+ ions, ATP, and cellular DNA • Anti-biofilm properties; MIC (Staphylococcus aureus; S. aureus, ref Sousa Silveira et al. (2020)): 256 µg/mL (≈ 1.7 mM); MIC/Sensitivity (Staphylococcus aureus; Staphylococcus aureus, ref Kwiatkowski et al. 2020, Sayout et al. 2020, Sousa Silveira et al. 2020, Macêdo et al. 2022, Noumi et al. 2023, Sharma et al. 2023): 256 to 3200 µg/mL; MIC/Sensitivity (Candida albicans [20]): 43.75 to 250 µg/mL; Mechanisms of action (Candida auris [21]; ref Ismail et al. 2022): • Induced oxidative stress • Increased CAT, SOD and GPx enzyme activity • Decreased GR and GST enzyme activity • Caused membrane disintegration; Mechanisms of action (Candida auris [21]; ref Shaban et al. 2020): • Reduced proteinase production and host cell adherence; bacterial counts in infections [22]: reduced bacterial counts; survival [22]: significantly improved survival; effect on biofilms [23]: inhibited biofilm formation and disrupted pre-formed biofilms; MIC90 (staphylococcal isolates): 146 to 200 µg/mL; MIC/Sensitivity (Malassezia pachydermatis): 10 to 585 µg/mL
